Test results published in BigSolDB 2.1.

`ON(Cc1ccccc1)Cc1ccccc1` showed a solubility (mole fraction) (in 1,2,4-trichlorobenzene, 293.75 K) of 0.00704, a solubility (mole fraction) (in 1,2,4-trichlorobenzene, 299.15 K) of 0.0103 and a solubility (mole fraction) (in 1,2,4-trichlorobenzene, 303.25 K) of 0.0138. For the same compound, the solubility (mole fraction) (in 1,2,4-trichlorobenzene, 308.45 K) was 0.0198, the solubility (mole fraction) (in 1,2,4-trichlorobenzene, 313.15 K) was 0.0263 and the solubility (mole fraction) (in 1,2,4-trichlorobenzene, 318.15 K) was 0.0367. It also gave a solubility (mole fraction) (in 1,2,4-trichlorobenzene, 323.15 K) of 0.0502, a solubility (mole fraction) (in 1,2-dichlorobenzene, 273.15 K) of 0.00343 and a solubility (mole fraction) (in 1,2-dichlorobenzene, 279.15 K) of 0.00486. The solubility (mole fraction) (in 1,2-dichlorobenzene, 283.65 K) was 0.00624, the solubility (mole fraction) (in 1,2-dichlorobenzene, 289.15 K) was 0.0086 and the solubility (mole fraction) (in 1,2-dichlorobenzene, 293.25 K) was 0.0106. For the same compound, the solubility (mole fraction) (in 1,2-dichlorobenzene, 298.65 K) was 0.0142, the solubility (mole fraction) (in 1,2-dichlorobenzene, 303.25 K) was 0.0182 and the solubility (mole fraction) (in 1,2-dichlorobenzene, 309.05 K) was 0.024. The solubility (mole fraction) (in 1,2-dichlorobenzene, 313.25 K) was 0.0302, the solubility (mole fraction) (in 1,2-dichlorobenzene, 318.95 K) was 0.0395 and the solubility (mole fraction) (in 1,2-dichlorobenzene, 323.35 K) was 0.0475. It also gave a solubility (mole fraction) (in THF, 273.65 K) of 0.051, a solubility (mole fraction) (in THF, 279.15 K) of 0.0594 and a solubility (mole fraction) (in THF, 284.15 K) of 0.0678. It also gave a solubility (mole fraction) (in THF, 289.15 K) of 0.0773, a solubility (mole fraction) (in THF, 293.75 K) of 0.0865 and a solubility (mole fraction) (in THF, 299.15 K) of 0.0986. It also gave a solubility (mole fraction) (in THF, 303.25 K) of 0.109, a solubility (mole fraction) (in THF, 308.45 K) of 0.123 and a solubility (mole fraction) (in THF, 313.15 K) of 0.137. It also gave a solubility (mole fraction) (in THF, 318.15 K) of 0.152, a solubility (mole fraction) (in THF, 323.15 K) of 0.169 and a solubility (mole fraction) (in acetone, 273.15 K) of 0.00762. For the same compound, the solubility (mole fraction) (in acetone, 279.15 K) was 0.0102, the solubility (mole fraction) (in acetone, 283.45 K) was 0.0124 and the solubility (mole fraction) (in acetone, 289.05 K) was 0.0159. For the same compound, the solubility (mole fraction) (in acetone, 293.05 K) was 0.0186, the solubility (mole fraction) (in acetone, 297.65 K) was 0.0229 and the solubility (mole fraction) (in acetone, 302.85 K) was 0.0282. The solubility (mole fraction) (in acetone, 308.05 K) was 0.035, the solubility (mole fraction) (in acetone, 313.15 K) was 0.0425 and the solubility (mole fraction) (in acetone, 317.15 K) was 0.0489. It also gave a solubility (mole fraction) (in acetone, 323.15 K) of 0.0598, a solubility (mole fraction) (in acetonitrile, 273.15 K) of 0.00152 and a solubility (mole fraction) (in acetonitrile, 279.15 K) of 0.00222. It also gave a solubility (mole fraction) (in acetonitrile, 283.45 K) of 0.00283, a solubility (mole fraction) (in acetonitrile, 289.05 K) of 0.00387 and a solubility (mole fraction) (in acetonitrile, 293.05 K) of 0.0049. The solubility (mole fraction) (in acetonitrile, 297.65 K) was 0.00624, the solubility (mole fraction) (in acetonitrile, 302.85 K) was 0.00815 and the solubility (mole fraction) (in acetonitrile, 308.05 K) was 0.0108. For the same compound, the solubility (mole fraction) (in acetonitrile, 313.15 K) was 0.014, the solubility (mole fraction) (in acetonitrile, 317.15 K) was 0.0168 and the solubility (mole fraction) (in acetonitrile, 323.15 K) was 0.0217. For the same compound, the solubility (mole fraction) (in cyclohexanone, 273.15 K) was 0.0233, the solubility (mole fraction) (in cyclohexanone, 279.15 K) was 0.0292 and the solubility (mole fraction) (in cyclohexanone, 283.65 K) was 0.0341. It also gave a solubility (mole fraction) (in cyclohexanone, 289.15 K) of 0.041, a solubility (mole fraction) (in cyclohexanone, 293.25 K) of 0.0471 and a solubility (mole fraction) (in cyclohexanone, 298.65 K) of 0.056. It also gave a solubility (mole fraction) (in cyclohexanone, 303.25 K) of 0.0654, a solubility (mole fraction) (in cyclohexanone, 309.05 K) of 0.0778 and a solubility (mole fraction) (in cyclohexanone, 313.25 K) of 0.09. The solubility (mole fraction) (in cyclohexanone, 318.95 K) was 0.105, the solubility (mole fraction) (in cyclohexanone, 323.35 K) was 0.119 and the solubility (mole fraction) (in dichloromethane, 273.15 K) was 0.0132. The solubility (mole fraction) (in dichloromethane, 279.15 K) was 0.0179, the solubility (mole fraction) (in dichloromethane, 283.45 K) was 0.0226 and the solubility (mole fraction) (in dichloromethane, 289.05 K) was 0.0287. The solubility (mole fraction) (in dichloromethane, 293.05 K) was 0.0345, the solubility (mole fraction) (in dichloromethane, 297.65 K) was 0.0425 and the solubility (mole fraction) (in dichloromethane, 302.85 K) was 0.0534. It also gave a solubility (mole fraction) (in dichloromethane, 308.05 K) of 0.0657, a solubility (mole fraction) (in dichloromethane, 312.15 K) of 0.0798 and a solubility (mole fraction) (in ethanol, 273.15 K) of 0.00127. For the same compound, the solubility (mole fraction) (in ethanol, 279.15 K) was 0.00172, the solubility (mole fraction) (in ethanol, 283.45 K) was 0.00215 and the solubility (mole fraction) (in ethanol, 289.05 K) was 0.00281. The solubility (mole fraction) (in ethanol, 293.05 K) was 0.00342, the solubility (mole fraction) (in ethanol, 297.65 K) was 0.00426 and the solubility (mole fraction) (in ethanol, 302.85 K) was 0.00543. It also gave a solubility (mole fraction) (in ethanol, 308.05 K) of 0.00695, a solubility (mole fraction) (in ethanol, 313.15 K) of 0.00863 and a solubility (mole fraction) (in ethanol, 317.15 K) of 0.0103. It also gave a solubility (mole fraction) (in ethanol, 323.15 K) of 0.013, a solubility (mole fraction) (in ethyl acetate, 273.15 K) of 0.00842 and a solubility (mole fraction) (in ethyl acetate, 279.15 K) of 0.0114. For the same compound, the solubility (mole fraction) (in ethyl acetate, 283.45 K) was 0.0139, the solubility (mole fraction) (in ethyl acetate, 289.05 K) was 0.0178 and the solubility (mole fraction) (in ethyl acetate, 293.05 K) was 0.0209. For the same compound, the solubility (mole fraction) (in ethyl acetate, 297.65 K) was 0.0256, the solubility (mole fraction) (in ethyl acetate, 302.85 K) was 0.0317 and the solubility (mole fraction) (in ethyl acetate, 308.05 K) was 0.0395.
